From PubChem BioAssay AID330 (DTP/NCI, 2004)
“And” between values parts separate entries of the source, which are not always exact repeats. Equal entries are not always repeated. Inconclusive results and toxic doses are left out. The calls were made as follows: active = survival T/C of 150% or more; inactive = T/C below 125% in these data.

System: P388 leukemia ip, CD2F1 mice, survival T/C
Experiment: NCI In Vivo Anticancer Drug Screen. Data for tumor model P388 Leukemia (intraperitoneal) in CD2F1 (CDF1) mice
Conditions: endpoint: median survival time, higher = longer survival
How it was run: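 Mice carrying the transplanted tumor received test compound or vehicle. Survival was recorded in each group, and the value is the treated-group measurement divided by that of the vehicle-treated control group.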

[1] = dose: 50.0 mg/kg/injection, schedule: Q01DX005 (ip), vehicle: saline with Tween-80
[2] = dose: 100.0 mg/kg/injection, schedule: Q01DX005 (ip), vehicle: saline with Tween-80
[3] = dose: 200.0 mg/kg/injection, schedule: Q01DX005 (ip), vehicle: saline with Tween-80
[4] = dose: 60.0 mg/kg/injection, schedule: Q01DX005 (ip), vehicle: saline with Tween-80
[5] = dose: 120.0 mg/kg/injection, schedule: Q01DX005 (ip), vehicle: saline with Tween-80
[6] = dose: 50.0 mg/kg/injection, schedule: Q01DX005 (ip), vehicle: Klucel (hydroxypropylcellulose) (HPC)
[7] = dose: 100.0 mg/kg/injection, schedule: Q01DX005 (ip), vehicle: Klucel (hydroxypropylcellulose) (HPC)
[8] = dose: 200.0 mg/kg/injection, schedule: Q01DX005 (ip), vehicle: Klucel (hydroxypropylcellulose) (HPC)
[9] = dose: 12.5 mg/kg/injection, schedule: Q01DX009 (ip), vehicle: saline
[10] = dose: 25.0 mg/kg/injection, schedule: Q01DX009 (ip), vehicle: saline
[11] = dose: 50.0 mg/kg/injection, schedule: Q01DX009 (ip), vehicle: saline
[12] = dose: 100.0 mg/kg/injection, schedule: Q01DX009 (ip), vehicle: saline

Measured: T/C

Cn1nnn(Cc2ccccc2)/c1=N/C(=S)Nc1ccccc1
inactive: dose: 100.0 mg/kg/injection, schedule: Q01DX001 (ip), vehicle: Klucel (hydroxypropylcellulose) (HPC) 99 % of control | dose: 200.0 mg/kg/injection, schedule: Q01DX001 (ip), vehicle: Klucel (hydroxypropylcellulose) (HPC) 95 % of control | dose: 400.0 mg/kg/injection, schedule: Q01DX001 (ip), vehicle: Klucel (hydroxypropylcellulose) (HPC) 86 % of control

O=C1OC2CCCC1O2 (centres undefined)
inactive: [1] 106 % of control | [2] 100 % of control | [3] 98 % of control

Cc1cc(C)n(C(=N)/C(C#N)=N/N(C)c2ccccc2)n1
inactive: dose: 25.0 mg/kg/injection, schedule: Q04DX002 (ip), vehicle: saline with Tween-80 100 % of control | dose: 50.0 mg/kg/injection, schedule: Q04DX002 (ip), vehicle: saline with Tween-80 93 % of control | dose: 100.0 mg/kg/injection, schedule: Q04DX002 (ip), vehicle: saline with Tween-80 90 % of control

CN(C)C(=O)Oc1c(Cc2ccccc2)c(=O)n2c([nH]c3ccccc32)c1C#N
inactive: [4] 89 % of control | [5] 92 % of control

Cn1c2nc(-[n+]3ccc(N4CCOCC4)cc3)nc-2c([O-])n(C)c1=O
inactive: dose: 100.0 mg/kg/injection, schedule: Q04DX003 (ip), vehicle: saline 100 % of control | dose: 200.0 mg/kg/injection, schedule: Q04DX003 (ip), vehicle: saline 101 % of control | dose: 400.0 mg/kg/injection, schedule: Q04DX003 (ip), vehicle: saline 100 % of control

c1ccc(CN2CSC3CCCCC32)cc1 (centres undefined)
inactive: dose: 25.0 mg/kg/injection, schedule: Q01DX005 (ip), vehicle: saline 102 % of control | dose: 50.0 mg/kg/injection, schedule: Q01DX005 (ip), vehicle: saline 109 % of control and 110 % of control | dose: 100.0 mg/kg/injection, schedule: Q01DX005 (ip), vehicle: saline 107 % of control and 118 % of control | dose: 200.0 mg/kg/injection, schedule: Q01DX005 (ip), vehicle: saline 120 % of control

CN1C(=O)/C(=C2\SC(=O)N(CN3CCOCC3)C2=O)c2cc(Br)ccc21
inactive: [6] 88 % of control | [7] 89 % of control | [8] 97 % of control

COc1ccc(S(=O)(=O)N/N=C\c2cccc([N+](=O)[O-])c2O)c(OC)c1OC
inactive: [1] 100 % of control | [2] 102 % of control | [3] 96 % of control

CC(=O)SCN1CCCCC1
inactive: [9] 108 % of control | [10] 108 % of control and 112 % of control | dose: 25.0 mg/kg/injection, schedule: Q04DX002 (ip), vehicle: saline 110 % of control | [11] 102 % of control and 118 % of control | dose: 50.0 mg/kg/injection, schedule: Q04DX002 (ip), vehicle: saline 112 % of control | [12] 108 % of control | dose: 100.0 mg/kg/injection, schedule: Q04DX002 (ip), vehicle: saline 114 % of control and 116 % of control

CN=NN/C1=C/CCCCCC1
inactive: dose: 15.0 mg/kg/injection, schedule: Q01DX005 (ip), vehicle: Klucel + Tween-80 105 % of control | dose: 30.0 mg/kg/injection, schedule: Q01DX005 (ip), vehicle: Klucel + Tween-80 113 % of control | dose: 60.0 mg/kg/injection, schedule: Q01DX005 (ip), vehicle: Klucel + Tween-80 111 % of control and 117 % of control

CC1=CC(C)C/C=C/C2C3OC3(C)C(C)C3C(Cc4c[nH]c5ccccc45)NC(=O)C23C(=O)C=CC(=O)C1O (centres undefined)
inactive: dose: 0.2 mg/kg/injection, schedule: Q01DX005 (ip), vehicle: Klucel (hydroxypropylcellulose) (HPC) 102 % of control | dose: 0.4 mg/kg/injection, schedule: Q01DX005 (ip), vehicle: Klucel (hydroxypropylcellulose) (HPC) 97 % of control | dose: 0.8 mg/kg/injection, schedule: Q01DX005 (ip), vehicle: Klucel (hydroxypropylcellulose) (HPC) 106 % of control | dose: 1.6 mg/kg/injection, schedule: Q01DX005 (ip), vehicle: Klucel (hydroxypropylcellulose) (HPC) 107 % of control | dose: 2.0 mg/kg/injection, schedule: Q01DX005 (ip), vehicle: Klucel (hydroxypropylcellulose) (HPC) 109 % of control | dose: 16.0 mg/kg/injection, schedule: Q01DX005 (ip), vehicle: Klucel (hydroxypropylcellulose) (HPC) 117 % of control

O=S1C2CCC(Br)C1CCC2Br (centres undefined)
inactive: dose: 0.39 mg/kg/injection, schedule: Q04DX002 (ip), vehicle: saline + alcohol 105 % of control | dose: 0.78 mg/kg/injection, schedule: Q04DX002 (ip), vehicle: saline + alcohol 100 % of control | dose: 1.56 mg/kg/injection, schedule: Q04DX002 (ip), vehicle: saline + alcohol 101 % of control

O=C(Nc1ccc(F)cc1)N1c2ccccc2SC12CCCC2
inactive: dose: 50.0 mg/kg/injection, schedule: Q01DX009 (ip), vehicle: saline with Tween-80 91 % of control | dose: 100.0 mg/kg/injection, schedule: Q01DX009 (ip), vehicle: saline with Tween-80 93 % of control | dose: 200.0 mg/kg/injection, schedule: Q01DX009 (ip), vehicle: saline with Tween-80 93 % of control

c1ccc2c(c1)nc1cc(NC3CCCCC3)c(=NC3CCCCC3)cc-1n2C1CCCCC1
inactive: [4] 87 % of control | [5] 91 % of control | dose: 240.0 mg/kg/injection, schedule: Q01DX005 (ip), vehicle: saline with Tween-80 89 % of control

CN(C)C1=C(N(C)C)C1N(C)C
inactive: dose: 10.0 mg/kg/injection, schedule: Q04DX003 (ip), vehicle: saline 100 % of control | dose: 20.0 mg/kg/injection, schedule: Q04DX003 (ip), vehicle: saline 97 % of control | dose: 40.0 mg/kg/injection, schedule: Q04DX003 (ip), vehicle: saline 101 % of control

CCCCCCC(=O)/C=C/c1ccc(OC(=O)c2ccccc2)cc1
inactive: [11] 97 % of control | [12] 97 % of control | dose: 200.0 mg/kg/injection, schedule: Q01DX009 (ip), vehicle: saline 110 % of control

CN(c1ccccc1)c1cc(=O)nc2ccccn12
inactive: dose: 60.0 mg/kg/injection, schedule: Q01DX005 (ip), vehicle: saline 105 % of control | dose: 120.0 mg/kg/injection, schedule: Q01DX005 (ip), vehicle: saline 98 % of control | dose: 240.0 mg/kg/injection, schedule: Q01DX005 (ip), vehicle: saline 105 % of control

CN(CCN1C(=O)c2cccc3cc(N)cc(c23)C1=O)CCN1C(=O)c2cccc3cc(N)cc(c23)C1=O
inactive: [1] 112 % of control | [2] 106 % of control | [3] 107 % of control

Cc1c2c(cc3c1[nH]c1ccccc13)C(=O)c1ccccc1C2=O
inactive: dose: 12.5 mg/kg/injection, schedule: Q01DX005 (ip), vehicle: saline with Tween-80 94 % of control | dose: 25.0 mg/kg/injection, schedule: Q01DX005 (ip), vehicle: saline with Tween-80 95 % of control | [1] 92 % of control and 94 % of control | [3] 87 % of control

CN(CCCc1nc2ccccc2[nH]1)N=O
inactive: dose: 100.0 mg/kg/injection, schedule: Q04DX003 (ip), vehicle: Klucel (hydroxypropylcellulose) (HPC) 100 % of control | dose: 200.0 mg/kg/injection, schedule: Q04DX003 (ip), vehicle: Klucel (hydroxypropylcellulose) (HPC) 101 % of control | dose: 400.0 mg/kg/injection, schedule: Q04DX003 (ip), vehicle: Klucel (hydroxypropylcellulose) (HPC) 100 % of control

C[N+]12CC[N+](C)(CC1)CC2
inactive: [9] 101 % of control | [10] 109 % of control | [11] 115 % of control

C=C(C#N)CCl
inactive: dose: 25.0 mg/kg/injection, schedule: Q01DX001 (ip), vehicle: saline with Tween-80 104 % of control | dose: 50.0 mg/kg/injection, schedule: Q01DX001 (ip), vehicle: saline with Tween-80 95 % of control

O=C(NC(CCS(=O)(=O)NCCCl)C(=O)OCc1ccccc1)OCc1ccccc1 (centres undefined)
inactive: dose: 12.5 mg/kg/injection, schedule: Q01DX009 (ip), vehicle: other 104 % of control | dose: 25.0 mg/kg/injection, schedule: Q01DX009 (ip), vehicle: other 90 % of control | dose: 50.0 mg/kg/injection, schedule: Q01DX009 (ip), vehicle: other 105 % of control | dose: 100.0 mg/kg/injection, schedule: Q01DX009 (ip), vehicle: other 103 % of control | dose: 200.0 mg/kg/injection, schedule: Q01DX009 (ip), vehicle: other 91 % of control

C=CC(c1ccccc1)c1cc2c(cc1OCC)OCO2 (centres undefined)
inactive: [6] 105 % of control | [7] 100 % of control | [8] 94 % of control

CC12CCCC([N+](=O)[O-])(C1)NC(=O)C2C#N (centres undefined)
inactive: dose: 60.0 mg/kg/injection, schedule: Q01DX005 (ip), vehicle: Klucel (hydroxypropylcellulose) (HPC) 108 % of control | dose: 120.0 mg/kg/injection, schedule: Q01DX005 (ip), vehicle: Klucel (hydroxypropylcellulose) (HPC) 95 % of control | dose: 240.0 mg/kg/injection, schedule: Q01DX005 (ip), vehicle: Klucel (hydroxypropylcellulose) (HPC) 100 % of control
